Where two headings read alike, the source gives them in different places.
Columns and labels:
[1] = biological target: T1, bovine spleen Cathepsin B (Bos taurus, UniProt P07688); assay: Cathepsin B cleavage assay (UHPLC-HRMS Orbitrap analysis); format: biochemical; settings: for % residual compound, Average %: 37 °C, pH 5.4, 5 μM, triplicate
T1 construct: bovine spleen Cathepsin B (SigmaAldrich C6286, ≥10 units/mg protein); purchased SigmaAldrich C6286; host or cells: bovine spleen (tissue-derived)
Procedure: The Cathepsin B cleavage assay was performed by incubating compounds 1–4 at 37 °C under gently shaking conditions in the presence of the active form of Cathepsin B. More specifically, 122.4 μL of an enzyme-activating solution (composed of 7.48 mg of L-cysteine dissolved in 2 mL of a buffer solution containing 20 mM NaOAc, 1 mM EDTA, pH 5.4 to give a final cysteine concentration of 30.88 mM) was mixed with 12.6 μL of enzyme stock solution, previously prepared by solubilization of bovine spleen Cathepsin B (SigmaAldrich C6286, ≥10 units/mg protein) in 1 mL of buffer solution (without cysteine) to give a concentration of enzyme stock solution of 12 units/mL. After the dilution, the final concentration of Cathepsin B was 1.12 u/mL. Then, the diluted enzyme solution was incubated at 37 °C for 15 min to activate Cathepsin B. After 15 min, 6 μL of 117 μM compound solution, previously prepared by diluting 5.85 μL of 1 mM stock solution of the compound in 44.15 μL of dry DMSO (giving a 117 μM solution), was added to the test tube and the cleavage assay solution was incubated at 37 °C under gentle shaking conditions. […] The solutions were then centrifuged for 10 min at 6000 rpm. Blank solutions were prepared for each compound by dilution of 6 μL of a 117 μM compound solution into 135 μL of an enzyme-activating solution. UHPLC-MS analyses were carried out using a Vanquish UHPLC System (Thermo Fisher Scientific) and Orbitrap Exploris 120 (Thermo Fisher Scientific). Thermo Scientific Xcalibur software was used to control the instruments and acquire the data. Freestyle 1.8 software was used for processing the data. UHPLC chromatographic separations were performed on a reversed-phase column Accucore C18 50 × 2.1 mm, 2.6 μm (Thermo Fisher Scientific). A gradient system was used with the mobile phase consisting of solvent A: H2O + 0.05% formic acid and solvent B: acetonitrile. The areas of the peak of compounds 1–4 in the extracted ion chromatogram were used to evaluate the kinetics of the cleavage process. The percentage of residual compound was calculated as the ratio between the areas of the peak of the full compound at the desired time point and in the blank analysis. %Residualcompound=areacompoundatthedesiredtimepoint/areacompoundintheblanksolution×100

[2] = pH stability assay (buffers pH 5.4 and 7.4, UHPLC-HRMS); format: physicochemical; settings: 37 °C, average of two replicates
Procedure: The pH stability assay was performed by incubating compounds 1–4 at 37 °C in buffers at pH 5.4 and 7.4 under gentle shaking conditions. More specifically, a solution of 20 mM AcONa and 1 mM EDTA in mQ water was used as a pH 5.4 buffer. A solution of PBS tablets in mQ water was used as a pH 7.4 buffer. A 1 mM stock solution of compounds 1–4 in dry DMSO was prepared and a […] solution was then obtained by dilution of 5.85 μL of the stock solution in 44.15 μL of dry DMSO. Then, 6 μL of the […] compound solution was diluted into 135 μL of the desired buffer, and the solution was incubated at 37 °C under gently shaking conditions. Samples aliquots (10 μL) were taken out at 15, 30 min and 1, 2, and 4 h and quenched with 10 μL of acetonitrile. The solutions were then injected in UHPLC-HRMS to monitor the stability of compounds 1–4 under different pH conditions. UHPLC-MS analyses were carried out as previously described for the Cathepsin B cleavage assay. The percentage of the residual compound was calculated as described above.
The stability of compounds 1–4 and of the free drug PTX was evaluated in vitro by UHPLC-Orbitrap analysis incubating the samples at 37 °C in buffer solutions at pH 5.4, to simulate the pH inside the cancer cells, and at physiological pH 7.4. The same buffer of the Cathepsin B cleavage assay was used for the test at pH 5.4. The percentage of residual compounds 1–4 was measured over time by calculating the ratio between the areas of the peak of the full compound at the desired time point and at time zero, and the results were compared with the percentage of residual compounds 1–4 calculated during the Cathepsin B cleavage assay (Tables S6).

[3] = Liver S9 fraction stability assay, human; format: in vitro ADME; settings: 37 °C; for remaining at 0.5 h, 1 μM / remaining at 1.5 h, 1 μM: male, liver S9 fraction, read-out: S9 stability (matrix: human) % remaining; for remaining at 0.5 h, 1 μM: 30 min
Procedure: The plasma stability assays were performed by Selvita SA (Krakow, Poland) following the protocol described in the Supporting Information. For the use of human plasma, consent was obtained from the subject or from the next of kin.
9. Plasma stability assays […]
Protocol for S9 fraction: a stock solution of compounds 1-4 in DMSO was incubated in human (male, pooled, commercially obtained from Xeno-tech lot: 2310104) and rat (male, pooled, commercially obtained from Xeno-tech (lot: 2210317)) S9 fraction at a final concentration of 1 μM (final concentration of DMSO = 0.5 %). The samples were incubated at 37 °C with a shaking of 450 rpm.
Aliquots of the samples were analyzed at time 0, 30 and 90 minutes by LC-MS/MS analysis.
The areas of the peak of the compounds 1-4 in the LC chromatogram were used to evaluate stability profile. The percentage of residual compounds 1-4 was calculated as the ratio between the area of the peak of the analyte and the area of the internal standard.
% residual compound = Area analyte ∙ 100
Table S7. LC-MS data of the stability assays in plasma extracts of compound 1.
Stability assays compound 1
Time Plasma stability Plasma stability S9 stability S9 stability
(min.) (matrix: rat) (matrix: human) Time (min.) (matrix: rat) (matrix: human) % remaining % remaining % remaining % remaining
Table S8. LC-MS data of the stability assays in plasma extracts of compound 2.
Stability assays compound 2

[4] = 2 min incubation with Cathepsin B
[5] = 15 min incubation with Cathepsin B
[6] = 30 min incubation with Cathepsin B
[7] = 60 min incubation with Cathepsin B
[8] = 120 min incubation with Cathepsin B

Structure (SMILES)	% residual compound, Average % [1, 4] [%]	% residual compound, Average % [1, 5] [%]	% residual compound, Average % [1, 6] [%]	% residual compound, Average % [1, 7] [%]	% residual compound, Average % [1, 8] [%]	% residual compound, % R1 ([1]; replicate R1, 2 min) [%]	% residual compound, % R1 ([1]; replicate R1, 15 min) [%]	% residual compound, % R1 ([1]; replicate R1, 30 min) [%]	% residual compound, % R1 ([1]; replicate R1, 60 min) [%]	% residual compound, % R1 ([1]; replicate R1, 120 min) [%]	% residual compound, % R1 ([1]; replicate R1, 240 min) [%]	% residual compound, % R3 ([1]; replicate R3, 2 min) [%]	% residual compound, % R3 ([1]; replicate R3, 15 min) [%]	% residual compound, % R3 ([1]; replicate R3, 30 min) [%]	% residual compound, % R3 ([1]; replicate R3, 60 min) [%]	% residual compound, % R3 ([1]; replicate R3, 120 min) [%]	% residual compound, % R3 ([1]; replicate R3, 240 min) [%]	Stability pH 7.4, % residual compound ([2]; pH 7.4 PBS, 120 min) [%]	also measured
CC(=O)O[C@H]1C(=O)[C@@]2(C)[C@H]([C@H](OC(=O)c3ccccc3)[C@]3(O)C[C@H](OC(=O)[C@H](OC(=O)N(C)CCN(C)C(=O)OCc4ccc(NC(=O)[C@H](CCCNC(N)=O)NC(=O)[C@@H](NC(=O)OCC5c6ccccc6-c6ccccc65)C(C)C)cc4)[C@@H](NC(=O)c4ccccc4)c4ccccc4)C(C)=C1C3(C)C)[C@]1(OC(C)=O)CO[C@@H]1C[C@@H]2O [Compound 3, Fmoc-VCit-PABC-diamine-PTX]	99.48	89.60	88.90	82.88	80.39	91.44	87.83	70.58	80.56	76.58	81.21	106.03	90.55	97.99	89.93	81.32	71.70	95.93	% residual compound, Average % ([1]; 240 min (4 h) incubation with Cathepsin B): 76%; remaining at 4 h, 4.98 µM ([2]; PBS pH 7.4, pH 7.4, pH 7.4 PBS, 240 min, read-out: Stability pH 7.4, % residual compound): 92%; remaining at 2 h, 4.98 µM ([2]; acetate/EDTA buffer pH 5.4, pH 5.4, pH 5.4 buffer, 120 min, read-out: Stability pH 5.4, % residual compound): 96.6%; remaining at 4 h, 4.98 µM ([2]; acetate/EDTA buffer pH 5.4, pH 5.4, pH 5.4 buffer, 240 min (4 h), read-out: Stability pH 5.4, % residual compound): 89.9%; Stability pH 5.4, % residual compound ([2]; pH 5.4 buffer, 30 min): 96.15%; Stability pH 7.4, % residual compound ([2]; pH 7.4 PBS, 30 min): 95.79%; remaining at 0.5 h, 1 μM [3]: 133%; remaining at 1.5 h, 1 μM ([3]; 90 min (1.5 h)): 95.2%
CC(=O)O[C@H]1C(=O)[C@@]2(C)[C@H]([C@H](OC(=O)c3ccccc3)[C@]3(O)C[C@H](OC(=O)[C@H](OC(=O)N(C)CCN(C)C(=O)OCc4ccc(NC(=O)[C@H](C)NC(=O)[C@@H](NC(=O)OCC5c6ccccc6-c6ccccc65)C(C)C)cc4)[C@@H](NC(=O)c4ccccc4)c4ccccc4)C(C)=C1C3(C)C)[C@]1(OC(C)=O)CO[C@@H]1C[C@@H]2O [Compound 4, Fmoc-VA-PABC-diamine-PTX]	98.31	89.84	76.32	72.91	58.50	105.08	98.99	79.84	76.95	61.83	68.01	98.31	83.72	80.54	75.94	52.91	49.81	96.21	remaining at 0.5 h, 4.98 µM ([2]; PBS pH 7.4, pH 7.4 PBS, 30 min, read-out: Stability pH 7.4, % residual compound): 94.7%; remaining at 0.5 h, 4.98 µM ([2]; acetate/EDTA buffer pH 5.4, pH 5.4 buffer, 30 min, read-out: Stability pH 5.4, % residual compound): 90.8%; remaining at 2 h, 4.98 µM ([2]; acetate/EDTA buffer pH 5.4, pH 5.4 buffer, 120 min, read-out: Stability pH 5.4, % residual compound): 52.5%; remaining at 4 h, 4.98 µM ([2]; acetate/EDTA buffer pH 5.4, pH 5.4 buffer, 240 min (4 h), read-out: Stability pH 5.4, % residual compound): 47.5%; Stability pH 5.4, % residual compound ([2]; pH 5.4 buffer, 240 min (4 h)): 47.4%; Stability pH 7.4, % residual compound ([2]; pH 7.4 PBS, 240 min): 95.00%; S9 stability (matrix: human) % remaining ([3]; 1 μM, 90 min (1.5 h)): 79.75%; remaining at 0.5 h, 1 μM ([3]; human): 107%; remaining at 1.5 h, 1 μM ([3]; human, 90 min (1.5 h)): 79.7%
